In ChEMBL document CHEMBL1159237, “The isolation and structural elucidation of three new neolignans, piperulins [corrected] A, B, and C, as platelet activating factor receptor antagonists from Piper puberulum” (J Nat Prod, 1995):

How the values were obtained:
[1] = species on record: Oryctolagus cuniculus; test: Displacement of [3H]PAF from rabbit PAF receptor in isolated platelet plasma membrane at 10 uM; format: cell membranes
[2] = Displacement of [3H]PAF from rabbit PAF receptor in isolated platelet plasma membrane; format: cell membranes, Oryctolagus cuniculus

Activity [1]	IC50 [2]	SMILES	Ki [2]
63%	7.3 µM	C=CCC1=C[C@@]2(OC)[C@@H](C)[C@H](c3ccc(OC)c(OC)c3)[C@@H](C1=O)[C@@H]2OC(C)=O [PUBERULIN A]	4.7 µM
43%	≥ 10 µM	C=CCC1=C[C@@]2(OC)[C@@H](C)[C@H](c3ccc4c(c3)OCO4)[C@@H](C1=O)[C@@H]2OC(C)=O [PUBERULIN B]	–
66%	5.7 µM	C=CC[C@]12C=C(OC)C(=O)[C@H]([C@@H](c3ccc(O)c(OC)c3)[C@@H]1C)[C@@H]2OC(C)=O [PUBERULIN C]	3.7 µM
